Assay results: patent US20050209278A1, “Piperidinyl- and piperazinyl-sulfonylmethyl hydroxamic acids and their use as protease inhibitors” (priority 2002, published 2005)
Counter-ions that a name gives are not always drawn. Like-named read-outs stand apart in the source and are kept apart here.

Columns and labels:
[1] = target: T1, MMP-13 (Homo sapiens, UniProt P45452); assay: In vitro MMP inhibition, Ki determination (fluorogenic substrate II); format: biochemical
T1 construct: made in house; host or cells: baculovirus / insect cells
Experimental: (§1) Several hydroxamic acids and salts thereof were analyzed in in vitro assays to determine their ability to inhibit the MMP cleavage of peptide substrates. […] and IC50 constants were calculated from the assayed hydroxamic acid-MMP interactions.
(§2) Human recombinant MMP-1, MMP-2, MMP-9, MMP-13, and MMP-14 were used in this assay. All enzymes were prepared in Assignee's laboratories following usual laboratory procedures. Protocols for the preparation and use of these enzymes are available in the scientific literature. See, e.g., Enzyme Nomenclature (Academic Press, San Diego, Calif., 1992) (and the citations therein). See also, Freije et al., “Molecular cloning and expression of collagenase-3, a novel human matrix metalloproteinase produced by breast carcinomas,” J Biol. Chem., 269(24), 16766-16773 (1994).
The MMP-13 was obtained as a proenzyme from a full-length cDNA clone using baculovirus, as described by V. A. Luckow, “Insect Cell Expression Technology,” Protein Engineering: Principles and Practice, pp. 183-218 (edited by J. L. Cleland et al., Wiley-Liss, Inc., 1996). The expressed proenzyme was first purified over a heparin agarose column, and then over a chelating zinc chloride column. The proenzyme was then activated by APMA for use in the assay. […] See also, O'Reilly et al, Baculovirus Expression Vectors: A Laboratory Manual (W.H. Freeman and Co., New York, N.Y., 1992). See also, King et al., The Baculovirus Expression System: A Laboratory Guide (Chapman & Hall, London, England, 1992).
(§3) All MMPs were activated using 4-aminophenylmercuric acetate (“APMA”, Sigma Chemical, St. Louis, Mo.) or trypsin. MMP-9 also was activated using human recombinant MMP-3 (purified in Assignee's laboratory following standard cloning and purification techniques).
(§4) Two fluorogenic, methoxycoumarin-containing polypeptide substrates were used in the MMP inhibition assays: [drawing 427] Here, “Dpa” is 3-(2,4-dinitrophenyl)-L-2,3-diaminopropionyl group, and “MCA” is 7-methoxycoumarin-4-yl acetyl. Substrate (I) was purchased from Baychem (Redwood City, Calif.), and substrate II was prepared Assignee's laboratory. Substrate I was used in the IC50 determination assays, while substrate II was used in the Ki determination assays. In the absence of MMP inhibitory activity, either substrate is cleaved at the Gly-Leu peptide bond. This cleavage separates the highly fluorogenic peptide from the 2,4-dinitrophenyl quencher, thus resulting in increase of fluorescent intensity.
(§5) The stock solutions of the assayed hydroxamic acids (or salts thereof) were prepared in 1% dimethyl sulfoxide (DMSO). These stock solutions were diluted in Buffer A (100 mM Tris-HCl, 100 mM NaCl, 10 mM CaCl2, 0.05% polyoxyethylene 23 lauryl ether, pH 7.5) to obtain solutions with different hydroxamic acid concentrations, i.e., assay solutions with different concentrations of the assayed MMP inhibitory compound. The experiment controls contained the same amount of Buffer A/DMSO as the assayed sample, but contained no hydroxamic acid (or salt thereof).
(§6) The assays from which the Ki determinations were made were performed as follows. The assayed hydroxamic acid samples were incubated in separate wells of untreated white polystyrene plates (Nunc Nalgene International, Rochester, N.Y.), and analyzed on a Tecan SpectraFlour Plus plate reader. The excitation wavelength was 330 nm, and the emission wavelength—420 nm. All samples (assayed hydroxamic acids and controls) were incubated in separate plate wells at room temperature for 1 hr in the presence of 4 μM of MMP substrate (II). In the absence of MMP inhibitory activity, substrate II was cleaved at the Gly-Leu bond resulting in an increase of relative fluorescence. Inhibition was observed as a reduced rate of this increase in relative fluorescence. The various hydroxamic acids were analyzed using a single low enzyme concentration with a single substrate concentration fixed at or below the Km.

[2] = target: T2, MMP-1 (Homo sapiens, UniProt P03956); assay: as above; format: biochemical
T2 construct: made in house; host or cells: MMP-1-transfected HT-1080 cells (spent media)
T2 sequence (P03956 100-469): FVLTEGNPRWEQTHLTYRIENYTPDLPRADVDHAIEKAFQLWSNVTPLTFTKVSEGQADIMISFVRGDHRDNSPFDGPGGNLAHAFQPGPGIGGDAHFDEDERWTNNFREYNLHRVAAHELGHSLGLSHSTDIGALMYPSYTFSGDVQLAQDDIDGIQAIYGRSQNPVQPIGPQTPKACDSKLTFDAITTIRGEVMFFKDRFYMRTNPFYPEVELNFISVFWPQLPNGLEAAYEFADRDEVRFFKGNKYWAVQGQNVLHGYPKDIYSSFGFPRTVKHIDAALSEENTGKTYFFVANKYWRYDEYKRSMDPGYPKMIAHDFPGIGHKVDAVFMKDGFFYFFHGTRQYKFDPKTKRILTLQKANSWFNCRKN
Experimental: as §1, §2
The MMP-1 proenzyme was purified from the spent media of MMP-1-transfected HT-1080 cells provided by Dr. Harold Welgus of Washington University (St. Louis, Mo.). The protein was purified on a zinc chelating column.
as §3, §4, §5
as §6, with “Km. This protocol is a modification of method by Knight et al., FEBS Lett., 296(3), 263-266 (1992). Apparent inhibitory constants were determined by non-linear regression of reaction velocity as a function of inhibitor and enzyme concentration using Morrison's equation, as described by Kuzmic, Anal. Biochem. 286, 45-50 (2000). […] Since the substrate concentration was chosen to be at or below the Km, the apparent Ki's from this analysis were reported as Ki's without correction for the influence of substrate.” for “Km.”

[3] = human recombinant enzyme, 4 μM substrate II, room temperature, 1 hr, read-out: MMP-13 Ki
[4] = human recombinant enzyme, 4 μM substrate II, room temperature, 1 hr, read-out: MMP-1 Ki
[5] = value not in parenthesis, read-out: MMP-13 Ki
[6] = value not in parenthesis, read-out: MMP-1 Ki
[7] = MMP-13 Ki, value not in parenthesis
[8] = MMP-1 Ki, value not in parenthesis

SMILES | Ki [1, 3] | Ki [2, 4] | Ki [1, 5] | Ki [2, 6] | also measured
O=C(NO)C1(S(=O)(=O)N2CCN(c3ccc(CCC(F)(F)C(F)(F)F)cc3)CC2)CCOCC1 [Example 17, N-hydroxy-4-({4-[4-(3,3,4,4,4-pentafluorobutyl)phenyl]piperazin-1-yl}sulfonyl)tetrahydro-2H-pyran-4-carboxamide Hydrochloride] | 0.328 nM | > 10000 nM |  |  | 
O=C(NO)C1(S(=O)(=O)N2CCC(c3ccc(CCC(F)(F)C(F)(F)F)cc3)CC2)CCOCC1 [Example 18, N-hydroxy-4-({4-[4-(3,3,4,4,4-pentafluorobutyl)phenyl]piperidin-1-yl}sulfonyl)tetrahydro-2H-pyran-4-carboxamide] | 0.444 nM | 7350 nM |  |  | 
CCCCc1ccc(C2CCN(S(=O)(=O)C3(C(=O)NO)CCOCC3)CC2)s1 [Example 19, 4-{[4-(5-butylthien-2-yl)piperidin-1-yl]sulfonyl}-N-hydroxytetrahydro-2H-pyran-4-carboxamide] | 5.47 nM | > 10000 nM |  |  | 
COCCN1CCC(C(=O)NO)(S(=O)(=O)N2CCC(c3ccc(OCCCC(F)(F)F)cc3)CC2)CC1 [Example 20, N-hydroxy-1-(2-methoxyethyl)-4-({4-[4-(4,4,4-trifluorobutoxy)phenyl]piperidin-1-yl}sulfonyl)piperidine-4-carboxamide Hydrochloride] | 0.15 nM | > 10000 nM |  |  | 
CCCCCc1ccc(N2CCN(S(=O)(=O)C3(C(=O)NO)CCN(C(=O)C(F)(F)F)CC3)CC2)cc1 [Example 21, N-hydroxy-4-{[4-(4-pentylphenyl)piperazin-1-yl]sulfonyl}-1-(trifluoroacetyl)piperidine-4-carboxamide Hydrochloride] | 6.17 nM | > 10000 nM |  |  | 
CCCCCc1ccc(N2CCN(S(=O)(=O)C3(C(=O)NO)CCN(CC)CC3)CC2)cc1F [Example 22, 1-ethyl-4-{[4-(3-fluoro-4-pentylphenyl)piperazin-1-yl]sulfonyl}-N-hydroxypiperidine-4-carboxamine Hydrochloride] | 2.78 nM | > 10000 nM |  |  | 
CCCCCc1ccc(N2CCN(S(=O)(=O)C3(C(=O)NO)CCOCC3)CC2)c(F)c1 [Example 23, 4-{[4-(2-fluoro-4-pentylphenyl)piperazin-1-yl]sulfonyl}-N-hydroxytetrahydro-2H-pyran-4-carboxamide Hydrochloride] | 4.17 nM | > 10000 nM |  |  | 
CCCCc1ccc(C2CCN(S(=O)(=O)C3(C(=O)NO)CCN(C4CC4)CC3)CC2)nc1 [Example 24, 4-{[4-(5-butylpyridin-2-yl)piperidin-1-yl]sulfonyl}-1-cyclopropyl-N-hydroxypiperidine-4-carboxamide Hydrochloride] | 0.54 nM | > 10000 nM |  |  | 
O=C(NO)C1(S(=O)(=O)N2CCC(c3ccc(OCC(F)(F)F)cc3)CC2)CCN(C2CC2)CC1 [Example 25, 1-cyclopropyl-N-hydroxy-4-({4-[4-(2,2,2-trifluoroethoxy)phenyl]piperidin-1-yl}sulfonyl)piperidine-4-carboxamide Hydrochloride] | 0.97 nM | > 10000 nM |  |  | 
CCCCCCCCC1CCN(S(=O)(=O)C2(C(=O)NO)CCOCC2)CC1 [Example 26, 4-(4-octyl-piperidine-1-sulfonyl)-tetrahydro-pyran-4-carboxylic Acid Hydroxyamide] | 0.51 nM | 2970 nM |  |  | 
O=C(NO)C1(S(=O)(=O)N2CCC(c3cnc(OCC(F)(F)C(F)(F)F)cn3)CC2)CCOCC1 [Example 27] | 0.5 nM | 4780 nM |  |  | 
CCCCCc1cnc(N2CCN(S(=O)(=O)C3(C(=O)NO)CCOCC3)CC2)s1 [Example 56] |  |  | 1.74 nM | > 10000 nM | 
O=C(NO)C1(S(=O)(=O)N2CCN(c3ccc(-c4ccc(Cl)cc4)cn3)CC2)CCOCC1 [Example 60] |  |  | 0.32 nM | 555 nM | 
O=C(NO)C1(S(=O)(=O)N2CCN(c3ccc(COCC(F)(F)C(F)(F)C(F)(F)C(F)F)cc3)CC2)CCOCC1 [Example 68] |  |  |  |  | Ki [1, 7]: 1.85 nM; Ki [2, 8]: > 10000 nM
O=C(NO)C1(S(=O)(=O)N2CCN(c3ccc(COCC(F)(F)C(F)(F)C(F)(F)F)cc3)CC2)CCOCC1 [Example 69] |  |  |  |  | Ki [1, 7]: 2.11 nM; Ki [2, 8]: > 10000 nM
C=CCCOC(=O)N1CCC(C(=O)NO)(S(=O)(=O)N2CCN(c3ccc(OCCCC)cc3)CC2)CC1 [Example 101] |  |  | 0.92 nM | > 10000 nM | 
COCCN1CCC(C(=O)NO)(S(=O)(=O)N2CCN(c3ccc(OCCCC(F)(F)F)cc3F)CC2)CC1 [Example 102] |  |  | 0.19 nM | > 10000 nM | 
O=C(NO)C1(S(=O)(=O)N2CCN(c3ncc(Br)cn3)CC2)CCOCC1 [Example 103] |  |  | 3.48 nM | 686 nM | 
O=C(NO)C1(S(=O)(=O)N2CCN(c3ncc(Br)cn3)CC2)CCOCC1 [Example 104] |  |  | 3.55 nM | 835 nM | 
O=C(NO)C1(S(=O)(=O)N2CCN(c3ncccn3)CC2)CCOCC1 [Example 106] |  |  | 27.2 nM | 1470 nM | 
O=C(NO)C1(S(=O)(=O)N2CCN(c3ncccn3)CC2)CCOCC1 [Example 107] |  |  | 22.4 nM | 1190 nM | 
COc1ccc(N2CCN(S(=O)(=O)C3(C(=O)NO)CCOCC3)CC2)nc1 [Example 108] |  |  | 478 nM | > 10000 nM | 
COc1ccc(N2CCN(S(=O)(=O)C3(C(=O)NO)CCOCC3)CC2)nc1 [Example 109] |  |  | 472 nM | > 10000 nM | 
CCCCCCCCCc1cnc(N2CCN(S(=O)(=O)C3(C(=O)NO)CCOCC3)CC2)nc1 [Example 110] |  |  | 3.23 nM | > 10000 nM | 
CCCCCCCCCc1cnc(N2CCN(S(=O)(=O)C3(C(=O)NO)CCOCC3)CC2)nc1 [Example 111] |  |  | 2.58 nM | > 10000 nM | 
O=C(NO)C1(S(=O)(=O)N2CCN(c3ccc(OCCCC(F)(F)F)cc3)CC2)CCN(c2cnccn2)CC1 [Example 112] |  |  | 0.27 nM | > 10000 nM | 
